Values of other authors as cited in article PMC7464078, “CYP3A Excipient-Based Microemulsion Prolongs the Effect of Magnolol on Ischemia Stroke Rats” (Pharmaceutics, 2020).
Where two headings read alike, the source gives them in different places.

How the values were obtained:
[1] = set-up: method as in PMID 21638244
CYP3A = tested on: CYP3A; set-up: method as in PMID 14716751, PMID 11137342; conditions: hepatocytes and liver microsomes

In the case of C=CCc1ccc(O)c(-c2cc(CC=C)ccc2O)c1 [Magnolol, 5,5′-diallyi-2,2′-dihydroxybiphenyl], the “Inhibition of rat CYP1A2” value (rat CYP1A2; in vitro) is given as “relatively strong inhibitors”, the “Inhibition of rat CYP3A” value (rat CYP3A; in vitro) is given as “weak inhibitors” and the “Inhibition of human CYP3A4” value (human CYP3A4; in vitro) is given as “weak inhibitors”. For the same compound, the Bioavailability [1] was 4%, the Water solubility (at 25 °C) was 1.24 mg/L and the “Solubility in dimethyl sulfoxide” value (ref Item No. 14233, Cyman Chemical) was “approximately 16 mg/mL”. For the same compound, the “Inhibition of rat CYP2E1” value (rat CYP2E1; in vitro) was “relatively strong inhibitors”.

For C=CCc1ccc(O)c(-c2ccc(O)c(CC=C)c2)c1 [honokiol], the “Inhibition of rat CYP1A2” value (rat CYP1A2) is given as “relatively strong inhibitors”, the “Inhibition of rat CYP3A” value (rat CYP3A) is given as “weak inhibitors” and the “Inhibition of human CYP3A4” value (human CYP3A4) is given as “weak inhibitors”. For the same compound, the “Inhibition of rat CYP2E1” value (rat CYP2E1) was “relatively strong inhibitors”.

For Tween-80, the “Effect on CYP3A activity” value (CYP3A) is listed as “inhibited”.
